According to patent US9394544B2, “Ameliorating oxidative stress in neurodegenerative disease via Nox1 targeting” (University of Central Florida Research Foundation, Inc., priority 2013, dated 2016):

Assays:
N27 cells = assay: 8-oxo-dG immunostaining (oxidative DNA damage) in N27 cells; format: cell-based, rat
Excerpt: To substantiate that nuclear Nox1/Rac1 complex produces superoxide, it was investigated whether selective inhibition of the Nox1/Rac1 complex attenuates ROS production. Adeno-associated virus serotype 2 (AAV2) expression cassettes with either Nox1 shRNA or a T17N dominant negative Rac1 variant were used to knockdown Nox1 or inhibit Rac1, respectively. These vectors separately expressed Green Fluorescent Protein (GFP) as a marker for transduction efficiency. […] The increased levels of active Nox1/Rac1 complex (FIG. 4B) in the nucleus, and increased ROS (FIGS. 5A and 5B) of DA cells in the presence of 6-OHDA, led one to investigate whether oxidative DNA damage occurs in the nucleus. […] As early as 3 days after striatal injection of 6-OHDA, 8-oxo-dG staining was increased in the SN (FIG. 5E). […]
For fluorescent immunostaining, N27 cells in the 4-well chamber slide were incubated for 1 h at 37° C. in 2% normal donkey serum containing either a rabbit polyclonal antibody against Nox1 (1:500), or p-c-jun (1:500). […] Specific binding was detected by incubation for 60 min at room temperature with a 1:200 dilution of secondary antibodies conjugated to AlexaFluor 546 dyes. […] Mounted slices were evaluated for fluorescence under settings for 546 and 488 nm emissions on a confocal microscope.

Rac1 = Rac1 activation assay (active GTPase pull-down) in N27 cells; format: cell-based, rat; details: 6 h post administration
Excerpt: The NADPH oxidase is a multi-subunit enzyme that consists of the catalytic subunits (Nox isoforms) together with the regulatory subunits including p22phox, p47phox, p40phox, p67phox, Nox organizer 1 (Noxo1), Nox activator 1 (Noxa1), and small GTPase Rac1. In order to test whether dopaminergic (DA) cells are equipped with the NOX components, N27, a well-established rat DA cell line was examined (Prasad et al. 1994). The mRNAs encoding each Nox isoform and regulatory subunits were detected using RT-PCR. Since transcriptional induction of Nox1 and Nox4 has already been reported in several tissues under a variety of stimuli, transcripts were determined in both nontreated and 6-hydroxydopamine (6-OHDA), a DA neurodegenerative compound, treated DA cells. ROS generation as induced by 6-OHDA (100 μM) and subsequent cell death was observed. All Nox isoforms (Nox1, Nox2, Nox4, Duox1 and Duox2) except Nox3 and Nox5 were detected (FIG. 1A). […] Mitochondria, which have long been considered as a major source of ROS, play a key role in Nox1-mediated superoxide generation (Desouki et al. 2005). […] Cytoplasmic regulatory subunits including p47phox, Noxa1, and Noxo1 were constitutively expressed in DA cells as well (FIG. 1A). Noxa1 and Noxo1 are homologues of p67phox and p47phox, respectively. […] GTP-bound active Rac1 was measured in DA cells treated with 6-OHDA for various duration from 1 h to 6 h. […]

Compound: NCCc1cc(O)c(O)cc1O [6-OHDA, 6-hydroxydopamine]
- DNA oxidative damage (8-oxo-dG immunoreactivity in the nucleus) caused by toxin (N27 cells): increased DNA oxidative damage
- GTP-bound active Rac1 (Rac1): Rac1 activation was observed
